This is an account of results in ChEMBL document CHEMBL5360598, “An ECD and NMR/DP4+ Computational Pipeline for Structure Revision and Elucidation of Diphenazine-Based Natural Products” (J Nat Prod, 2023).

Calls of active or inactive are those of the source. The rule behind the calls is not given here.

In assay [1] the target is Eukaryotic translation initiation factor 4E/Eukaryotic translation initiation factor 4E-binding protein 1 (Homo sapiens, UniProt P06730+Q13541). The experiment in a line: Inhibition of eIF4E-4E-BP1 (unknown origin) interaction by cat-ELCCA assay. It counts as protein assay.
Another assay concerns MIA PaCa-2. As to the kind of experiment: Antiproliferative activity against human MIA PaCa-2 cells by Cell Titer Glo assay. It counts as functional, cell-based.
The target in assay [2] is Eukaryotic translation initiation factor 4E (Homo sapiens) (UniProt P06730). The experiment in a line: Binding affinity to eIF4E in HEK293 cell lysate assessed as thermal stability at 25 uM at 42 to 53 degreeC by CETSA. It is filed as subcellular.
Sequence of Eukaryotic translation initiation factor 4E (Homo sapiens) (P06730 whole entry): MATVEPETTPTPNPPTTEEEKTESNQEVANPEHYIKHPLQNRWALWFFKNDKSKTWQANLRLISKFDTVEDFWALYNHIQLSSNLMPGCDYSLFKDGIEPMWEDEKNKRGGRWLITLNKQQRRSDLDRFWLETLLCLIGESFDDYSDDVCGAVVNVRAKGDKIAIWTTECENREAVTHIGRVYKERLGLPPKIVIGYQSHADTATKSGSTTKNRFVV

Sequence of Eukaryotic translation initiation factor 4E/Eukaryotic translation initiation factor 4E-binding protein 1 (P06730 whole entry): as above
Sequence of Eukaryotic translation initiation factor 4E/Eukaryotic translation initiation factor 4E-binding protein 1 (Q13541 whole entry): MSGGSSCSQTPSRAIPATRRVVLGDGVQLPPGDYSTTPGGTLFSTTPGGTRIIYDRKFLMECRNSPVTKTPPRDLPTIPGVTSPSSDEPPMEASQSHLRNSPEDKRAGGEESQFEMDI

For `O=C(O)c1ccc(=O)c2nc3c4c(ccc3[nH]c1-2)[C@@H]1Cc2nc3cccc(O)c3nc2[C@H](O4)[C@H]1O`, in assay [1] (read-out: EC50), the EC50 stood at 68 µM.

Regarding `O=C(O)c1ccc(O)c2nc3c4c(ccc3nc12)[C@@H]1Cc2nc3cccc(O)c3nc2[C@H](O4)[C@H]1O`, the EC50 in assay [1] (read-out: EC50) turned out to be 310 µM.

Turning to `O=C(O)c1cc2c(c3nc4c(O)cccc4nc13)[C@@H]1Cc3nc4cccc(O)c4nc3[C@H](O2)[C@H]1O`, the EC50 in assay [1] (read-out: EC50) amounted to 260 µM.

In the case of `O=C(O)c1cc2c(c3nc4c(O)cccc4nc13)[C@@H]1Cc3nc4cccc(O)c4nc3[C@@H](O)[C@@H]1O2` [IZUMIPHENAZINE A], the EC50 in assay [1] (read-out: EC50) is 240 µM.

As for `Oc1cccc2nc3c(O)cccc3nc12`, the EC50 result in assay [1] is “Not Active”.

For `O=C(O)c1cc2c(c3nc4c(O)cccc4nc13)O[C@@H]1[C@H](O)c3nc4cccc(O)c4nc3C[C@H]21`, the outcome with MIA PaCa-2 was inactive. The EC50 in assay [1] (read-out: EC50) was determined as 7.8 µM. For the same molecule, in assay [2], the result was Active.

Consider `O=C(O)c1cc2c(c3nc4c(O)cccc4nc13)[C@@H]1Cc3nc4cccc(O)c4nc3[C@@](O)(C1)O2`, for which the EC50 entry in assay [1] is “Not Active”.
